Data: PubChem BioAssay AID1361 (SRMLSC, 2008)
pIC50: −log10 of the molar value. Activity calls are given as the source filed them. No rule for the calls is given here.

Assay: blockers of mitochondrial fusion, WT vs mutant – cell-based, chemical genetic, wild-type and mutant, confirmation (AID 1361)
Conditions: Cell-based mitochondrial fusion phenotype, imaging
[1] = mutant cells, measured here: mutant cell line IC50

SMILES	IC50 (WT cells)	pIC50 [1]	pIC50 (WT cells)
COC(=O)C1=C(CSc2nc3ccccc3o2)NC(=O)NC1c1cc(C)ccc1C (configuration not stated)	> 25 µM (inactive)	< 4.60	–
Cc1nn(C(C)C(=O)NCC2CCCO2)c(=O)c2cc3occc3n12 (configuration not stated)	> 25 µM (inactive)	< 4.60	–
CCOP(=O)(OCC)c1nc(/C=C/c2ccccc2)oc1NCc1ccccc1	> 25 µM (inactive)	< 4.60	–
Cc1cc(Br)c(OCc2ccc(C(=O)N/N=C3\CC4CC=CC34)cc2)c(Br)c1 (configuration not stated)	–	4.85	5.10
O=C(NCc1ccco1)c1cccnc1-c1nc2ccccc2s1	> 25 µM (inactive)	< 4.60	–
CCOC(=O)c1sc(NC(=O)/C=C/c2cnn(C)c2C)c(C(=O)OC(C)C)c1C	> 25 µM (inactive)	< 4.60	–
O=C(c1cc(Cl)cc(Cl)c1)N1CCC(=O)N(C(COCc2ccccc2)Cc2ccccc2)CC1 (configuration not stated)	> 25 µM (inactive)	< 4.60	–
COC(=O)C1=CN(CCOC23CC4CC(CC(C4)C2)C3)C=C(C(=O)OC)C1c1ccsc1	–	< 4.60	4.77
Cc1ccc(Cn2ncc3c(N4CCN(c5ccccc5C)CC4)ncnc32)cc1	–	4.61	5.11
CC1=CC(C)(C)N(C(=O)c2ccc(F)cc2)c2cc3c(cc21)OCO3	> 25 µM (inactive)	< 4.90	–
CCn1c(C(=O)N2CCc3ccccc3C2)cc2oc3ccccc3c21	–	< 4.60	5.05
CCOc1cc(C2Nc3ccccc3C(=O)N2c2ccccc2OC)ccc1O (configuration not stated)	> 25 µM (inactive)	< 4.60	–
O=C(OCc1nnc(-c2ccccc2)o1)C12CC3CC(CC(Br)(C3)C1)C2	–	< 4.60	4.62
O=C1NC(Nc2nc3ccccc3s2)(C(F)(F)F)C(=O)N1C1CCCCC1 (configuration not stated)	–	< 4.60	4.70
CC1CC(C)(C)N2C(=O)C3(Nc4ccccc4S3)c3cccc1c32 (configuration not stated)	> 25 µM (inactive)	< 4.60	–
CC1=CC(C)(C)N(S(=O)(=O)c2ccc(C)cc2)c2cc(C)ccc21	–	< 4.60	4.95
COc1ccc2nc(NC(=O)CN(c3ccc(C)cc3)S(=O)(=O)c3c(C)nn(C)c3C)sc2c1	–	< 4.60	4.80
CCc1nnc(NC(=O)c2cccc(C(=O)Nc3nnc(CC)s3)n2)s1	–	< 4.60	4.62
Cc1c(N2C(=O)c3cccc4cccc(c34)C2=O)c(=O)n(-c2ccccc2)n1C	> 25 µM (inactive)	< 4.60	–
Cc1cc(C)nc(Nc2ncc(O)n2-c2ccccc2)n1	> 25 µM (inactive)	< 4.60	–
Cc1ccc(-c2nc(N)sc2-c2ccc(C)cc2)cc1	9.96 µM (inactive)	5.02	–

SMILES	IC50 (WT cells)	pIC50 [1]	pIC50 (WT cells)
FC(F)(F)c1cc(-c2ccccc2)nc(NCc2cccs2)n1	–	< 4.60	4.72
COc1ccccc1CN=Cc1[nH]c2ccc(Br)c(Cl)c2c1O	> 25 µM (inactive)	< 4.60	–
COc1ccc(NS(=O)(=O)c2ccc3oc(Nc4ccc5c(c4)OCCO5)nc3c2)cc1	–	< 4.60	4.75
CC1(c2ccc([N+](=O)[O-])cc2)CC(C)(C)N(C(=O)c2ccccc2)c2ccccc21 (configuration not stated)	–	5.39	5.77
CCN1CCN(CCNC(=O)c2ccc(/C=C3\Sc4ccccc4N(Cc4ccccc4F)C3=O)cc2)CC1	18.9 µM (inactive)	< 4.90	–
CCCn1c(CN(Cc2ccccc2)Cc2ccccc2)nc2c1c(=O)n(C)c(=O)n2C	–	< 4.60	4.69
COC(=O)C1=C(C)N(C(C)c2ccccc2)C(=O)/C1=C\c1ccco1 (configuration not stated)	–	< 4.60	4.62
Fc1ccccc1Nc1nc2c(s1)CCc1ccccc1-2	–	4.72	4.75
COCCCn1c(SCC(=O)NC(C)(C)C)nnc1-c1ccccc1	> 25 µM (inactive)	< 4.60	–
N#CCC(=O)N/N=C/c1cc(-c2ccccc2)n(-c2ccc(Cl)cc2)c1-c1ccccc1	–	< 4.60	5.38
COc1ccc(Br)cc1CN(C)CC(=O)Nc1cc(Cl)cc(Cl)c1	–	4.65	5.04
CN(C(=S)Nc1ccc(SC(F)F)cc1)c1ccc(O)cc1	> 25 µM (inactive)	< 4.60	–
CN(C)S(=O)(=O)c1ccc(C(=O)Nc2nnc(-c3ccc4c(c3)CCCC4)o2)cc1	–	4.66	4.89
Cc1ccc(NC(=O)CCC(=O)OCC(=O)c2ccc(Oc3ccc([N+](=O)[O-])cc3)cc2)cc1C	> 25 µM (inactive)	< 4.60	–
Cc1cc(NC(=O)COC(=O)C(Nc2ccc(C(F)(F)F)cc2Cl)C(C)C)no1 (configuration not stated)	–	4.62	4.86
CCCCOc1c(Br)cc(/C=N/O)cc1OCC	> 25 µM (inactive)	< 4.60	–
COc1ccc(OC)c(-c2cc(C3CCN(c4cc(Cl)nc(N)n4)CC3)[nH]n2)c1	> 25 µM (inactive)	< 4.60	–
c1ccc2c(-c3c[nH]c4ccccc34)c3ccccc3nc2c1	–	< 4.60	4.82
CCn1ccnc1CN1CCc2c([nH]c3ccccc23)C1CC(C)C (configuration not stated)	> 25 µM (inactive)	< 4.60	–
c1ccc(CC2CCN(c3nnnn3-c3ccccc3)CC2)cc1	> 25 µM (inactive)	< 4.60	–
CC1CCc2nc(NC(=O)CN3CCN(c4ccc(F)cc4)CC3)sc2C1 (configuration not stated)	> 25 µM (inactive)	4.80	–

SMILES	IC50 (WT cells)	pIC50 [1]	pIC50 (WT cells)
COC(=O)c1ccc(-c2sc3nc(N4CCOCC4)c4c(c3c2N)CCCC4)o1	> 25 µM (inactive)	< 4.60	–
CCC1(C)Cc2c(sc3[nH]c(=S)n(Cc4ccccc4)c(=O)c23)CO1 (configuration not stated)	–	< 4.60	4.67
COc1ccc(C2C3=C(CC(C)(C)CC3=O)Oc3ncn(Cc4ccccc4)c(=N)c32)cc1 (configuration not stated)	–	< 4.60	4.90
CC1(C)CC(=O)C(C=NCc2cccnc2)=C(O)C1	> 25 µM (inactive)	< 4.60	–
FC(F)(F)c1ccc(Oc2ccc3ccccc3c2Br)nc1	> 25 µM (inactive)	< 4.90	–
COc1ccccc1N(CC(O)COc1c(C)cc(C)cc1C)S(=O)(=O)c1ccccc1 (configuration not stated)	–	< 4.60	4.79
CC1(C)C=C2[C@H]3CC[C@@H]4[C@@]5(C)CCC(=O)C(C)(C)[C@@H]5CC[C@@]4(C)[C@]3(C)CC[C@@]2(C(=O)O)CC1	–	< 4.60	4.66
O=C(Nc1ccc(F)cc1)N1CC2CC(C1)c1cccc(=O)n1C2 (configuration not stated)	> 25 µM (inactive)	< 4.60	–
CC(C)CN(C(=O)c1nn(C)c(=O)c2ccccc12)c1nc2ccccc2s1	–	< 4.60	4.66
CCOC(=O)c1c(C)n(C)c2cc(Br)c(C(=O)OC)cc12	> 25 µM (inactive)	< 4.60	–
O=C(Nc1ccc2c(c1)OCO2)c1ccccc1SCC(=O)N1CCCC1	> 25 µM (inactive)	< 4.60	–
CCCCCCc1nc2ccccc2c(=O)n1NC(=O)c1c(O)c2cccc3c2n(c1=O)CCC3	–	< 4.60	4.98
C=CCn1c(C)c(C(C)=O)c(N2CCN(C(c3ccccc3)c3ccccc3)CC2)nc1=S	–	< 4.60	4.88
CCOc1ccccc1NC(C)C(=O)Nc1cc(C(F)(F)F)ccc1N1CCOCC1 (configuration not stated)	–	4.65	4.72
NNC(=O)c1cc2c(N3CCC(Cc4ccccc4)CC3)ncnc2s1	–	< 4.60	4.76
Cc1ccccc1S(=O)(=O)c1c(C)cc(C)n(CC(C)C)c1=O	> 25 µM (inactive)	< 4.60	–
CCCN(CCC)CCCNC(=O)CS(=O)Cc1nc(-c2ccc(OC)c(OC)c2)oc1C (configuration not stated)	> 25 µM (inactive)	< 4.60	–
CCOC(=O)c1cc2c(ccn2C)n1Cc1cc(C)ccc1C	25 µM (inactive)	< 4.60	–
Cc1cccc(-c2noc(CN(C(=O)CCc3ccccc3)C(C)C)n2)c1	> 25 µM (inactive)	4.61	–
c1csc(C(c2nnnn2C2CCCC2)N2CCCC3(CCCCC3)C2)c1 (configuration not stated)	–	< 4.60	5.31
CCC(C(=O)OCC(=O)Nc1ccc(SC(F)F)cc1)c1ccccc1 (configuration not stated)	–	< 4.60	4.75

SMILES	IC50 (WT cells)	pIC50 [1]	pIC50 (WT cells)
CCCCCCP(=O)(O)c1ccccc1	> 25 µM (inactive)	< 4.60	–
CCN(CC)CCNC(=O)Cn1nc(Cc2ccccc2)c2ccccc2c1=O	> 25 µM (inactive)	< 4.60	–
O=C(CNC(=S)N(Cc1ccccc1)Cc1ccccc1F)NCc1ccc(Cl)cc1	–	< 4.60	5.25
Cc1sc(NC(=O)CSc2nnnn2C2CCCCC2)c(C#N)c1C	> 25 µM (inactive)	< 4.60	–
O=c1cc(N2CCCCC2)c(-c2ccccc2)nn1Cc1c(Cl)cccc1Cl	–	< 4.60	5.27
C=C(C)C1CC=C(C)/C(=N\NC(=S)Nc2ccc(C)cc2)C1 (configuration not stated)	> 25 µM (inactive)	< 4.60	–
Cc1cc2ncn(/N=C/c3cccnc3)c2cc1C	> 25 µM (inactive)	< 4.60	–
CCCCSc1cnn(-c2ccccc2)c(=O)c1SCCCC	–	< 4.60	4.90
Cc1ccc(/C=N/n2cnc3sc(-c4ccccc4)cc3c2=O)o1	> 25 µM (inactive)	< 4.60	–
COc1ccc(NS(=O)(=O)c2cc(C(=O)O)ccc2C)cc1	> 25 µM (inactive)	< 4.60	–
COc1ccc2ccc3c(c2c1)N=CC1(O3)N(C)c2ccccc2C1(C)C (configuration not stated)	–	< 4.60	5.22
Cc1ccc2c(c1)C1CN(C)CCC1N2C(=O)c1cn(-c2ccccc2)nc1-c1ccccc1 (configuration not stated)	–	< 4.60	4.63
CCOc1ccc(NS(=O)(=O)c2ccc(NC(=S)NC(=O)CC(C)C)cc2)cc1	–	< 4.60	4.84
CCc1ccc2ncc(S(=O)(=O)c3ccc(C)c(C)c3)c(N3CCCC3)c2c1	–	< 4.60	4.84
O=C(C1CCCCC1)N(Cc1ccccc1)c1ccccn1	> 25 µM (inactive)	< 4.60	–
O=[N+]([O-])c1ccc(/C=N/Nc2nc(N3CCCCCC3)nc(N3CCCCCC3)n2)o1	–	< 4.60	5.07
Oc1ccc(/C=N/Nc2nc(N3CCCCCC3)nc(N3CCCCCC3)n2)c(O)c1	–	< 4.60	5.02
O=C(CCc1nc(-c2ccccc2)no1)NCCc1ccccc1	> 25 µM (inactive)	< 4.60	–
